Data: US20230219986A1, “NOVEL AMINOPYRIMIDINE EGFR INHIBITOR” (QILU PHARMACEUTICAL CO., LTD., priority 2020, published 2023)
Where two headings read alike, the source gives them in different places.

Tests used:
[1] = system: EGFR wild-type cell line A431; assay: Cell proliferation inhibition experiment (CellTiter-Glo), A431; type: cell-based; settings: Homo sapiens, A431 cells, Cell Titer-Glo, read-out: A431 EGFR WT IC50
Summary of the method: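 A431 cells, 800 per well, were cultured 24 h and then exposed to serially diluted compound (0.1% DMSO final) for 72 h at 37° C., 5% CO2.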

[2] = target: Ba/F3 De119/T790M/C797S EGFR triple mutant cell line (Homo sapiens, UniProt P00533, T790M/C797S, cells depend on it, form not given); assay: Cell proliferation inhibition experiment (CellTiter-Glo), Ba/F3 De119/T790M/C797S; type: cell-based; settings: Ba/F3 Del19/T790M/C797S EGFR triple mutant cells, 72 hours, Cell Titer-Glo; read-out: Ba/F3 (Del19/T790M/C797S) IC50
[3] = target: Ba/F3 L858R/T790M/C797S EGFR triple mutant cell line (Homo sapiens, UniProt P00533, T790M/C797S/L858R, cells depend on it); assay: Cell proliferation inhibition experiment (CellTiter-Glo), Ba/F3 L858R/T790M/C797S; type: cell-based; settings: 72 hours, Cell Titer-Glo, read-out: Ba/F3 (L858R/T790M/C797S) IC50
wild-type EGFR = target: T1, wild-type EGFR (Homo sapiens, UniProt P00533); assay: Enzymology experiment in vitro (HTRF/FRET kinase activity), wild-type EGFR; type: biochemical; settings: HTRF KinEASE-TK
T1 construct: purchased Signalchem
Summary of the method: (§1)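 HTRF KinEASE-TK format: EGFR enzyme preincubated with compound 10 min at room temperature, then peptide substrate plus ATP added for 40 min. Detection with EDTA, XL665-streptavidin and Eu³⁺-labeled antibody for 1 h.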

[4] = target: T2, L858R/T790M/C797S triple mutant EGFR (Homo sapiens, UniProt P00533, C797S/L858R/T790M); assay: Enzymology experiment in vitro (HTRF/FRET kinase activity), L858R/T790M/C797S triple mutant EGFR; type: biochemical; settings: HTRF KinEASE-TK
T2 construct: purchased Signalchem
Summary of the method: as §1

[5] = read-out: EGFR (L858R/T790M/C797S) IC50

Ba/F3 De119/T790M/C797S EGFR triple mutant cell line, sequence (P00533 with tags, fused parts or gaps DEL746-750/T790M/C797S, form open): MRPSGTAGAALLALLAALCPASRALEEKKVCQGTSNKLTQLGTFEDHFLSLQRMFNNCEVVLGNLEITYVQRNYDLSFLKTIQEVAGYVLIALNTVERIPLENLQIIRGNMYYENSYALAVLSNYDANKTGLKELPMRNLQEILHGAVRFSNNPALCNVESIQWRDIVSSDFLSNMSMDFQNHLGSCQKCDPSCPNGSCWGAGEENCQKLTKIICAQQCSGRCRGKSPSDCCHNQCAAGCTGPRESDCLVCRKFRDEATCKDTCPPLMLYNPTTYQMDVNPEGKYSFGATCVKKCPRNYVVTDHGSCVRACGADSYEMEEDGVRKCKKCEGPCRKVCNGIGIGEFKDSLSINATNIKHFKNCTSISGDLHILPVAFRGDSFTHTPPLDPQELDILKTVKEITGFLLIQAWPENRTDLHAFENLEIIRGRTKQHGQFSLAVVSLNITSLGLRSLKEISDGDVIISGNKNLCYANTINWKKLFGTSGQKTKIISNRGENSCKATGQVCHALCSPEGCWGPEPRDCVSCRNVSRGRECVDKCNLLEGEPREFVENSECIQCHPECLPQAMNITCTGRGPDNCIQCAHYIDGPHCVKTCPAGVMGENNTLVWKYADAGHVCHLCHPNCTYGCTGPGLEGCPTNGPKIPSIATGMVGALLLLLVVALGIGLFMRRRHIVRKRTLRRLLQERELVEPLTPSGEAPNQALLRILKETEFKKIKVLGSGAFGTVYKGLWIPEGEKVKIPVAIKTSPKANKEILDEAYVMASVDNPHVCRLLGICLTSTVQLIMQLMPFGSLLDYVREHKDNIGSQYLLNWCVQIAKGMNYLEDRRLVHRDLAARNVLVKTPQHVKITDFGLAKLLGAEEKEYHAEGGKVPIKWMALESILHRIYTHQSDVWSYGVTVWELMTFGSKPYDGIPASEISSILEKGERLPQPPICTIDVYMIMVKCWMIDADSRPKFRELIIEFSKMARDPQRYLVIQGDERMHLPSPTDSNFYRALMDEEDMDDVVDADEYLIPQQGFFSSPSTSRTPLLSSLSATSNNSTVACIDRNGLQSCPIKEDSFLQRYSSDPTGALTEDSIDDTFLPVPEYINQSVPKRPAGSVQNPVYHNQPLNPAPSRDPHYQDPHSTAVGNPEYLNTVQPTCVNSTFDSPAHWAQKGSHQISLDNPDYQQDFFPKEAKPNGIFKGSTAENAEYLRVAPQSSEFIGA
T2 sequence (P00533 25-1210 T790M/C797S/L858R): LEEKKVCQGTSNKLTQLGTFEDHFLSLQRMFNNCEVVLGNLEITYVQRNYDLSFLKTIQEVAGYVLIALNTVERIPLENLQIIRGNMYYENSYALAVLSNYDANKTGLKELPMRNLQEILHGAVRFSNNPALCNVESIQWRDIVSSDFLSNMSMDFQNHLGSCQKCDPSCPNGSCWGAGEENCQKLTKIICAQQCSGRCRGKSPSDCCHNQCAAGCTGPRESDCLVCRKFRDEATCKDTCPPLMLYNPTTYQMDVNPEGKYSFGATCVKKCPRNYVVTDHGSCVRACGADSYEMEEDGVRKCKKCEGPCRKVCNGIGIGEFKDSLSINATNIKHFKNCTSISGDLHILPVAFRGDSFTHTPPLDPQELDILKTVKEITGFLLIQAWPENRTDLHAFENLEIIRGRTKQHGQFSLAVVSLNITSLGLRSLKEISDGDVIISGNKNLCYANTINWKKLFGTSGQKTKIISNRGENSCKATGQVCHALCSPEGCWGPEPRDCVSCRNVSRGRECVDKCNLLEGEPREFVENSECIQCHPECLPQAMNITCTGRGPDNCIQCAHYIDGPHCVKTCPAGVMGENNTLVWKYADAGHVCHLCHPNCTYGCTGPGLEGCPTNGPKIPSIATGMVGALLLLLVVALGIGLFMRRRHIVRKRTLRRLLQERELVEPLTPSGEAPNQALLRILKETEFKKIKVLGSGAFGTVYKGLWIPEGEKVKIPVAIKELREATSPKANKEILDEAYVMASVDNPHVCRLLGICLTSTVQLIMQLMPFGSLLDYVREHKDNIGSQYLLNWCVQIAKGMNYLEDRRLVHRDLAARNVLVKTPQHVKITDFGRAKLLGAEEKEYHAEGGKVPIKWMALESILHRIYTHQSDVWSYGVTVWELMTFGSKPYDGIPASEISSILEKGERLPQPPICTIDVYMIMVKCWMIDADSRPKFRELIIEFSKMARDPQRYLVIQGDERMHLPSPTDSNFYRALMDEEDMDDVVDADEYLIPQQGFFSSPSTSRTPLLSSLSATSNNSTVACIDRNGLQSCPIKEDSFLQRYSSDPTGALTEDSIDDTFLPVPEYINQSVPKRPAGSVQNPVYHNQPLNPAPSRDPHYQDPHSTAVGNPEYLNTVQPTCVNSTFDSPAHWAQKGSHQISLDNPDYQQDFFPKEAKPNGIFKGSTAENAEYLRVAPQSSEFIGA
Ba/F3 L858R/T790M/C797S EGFR triple mutant cell line, sequence (P00533 whole entry T790M/C797S/L858R): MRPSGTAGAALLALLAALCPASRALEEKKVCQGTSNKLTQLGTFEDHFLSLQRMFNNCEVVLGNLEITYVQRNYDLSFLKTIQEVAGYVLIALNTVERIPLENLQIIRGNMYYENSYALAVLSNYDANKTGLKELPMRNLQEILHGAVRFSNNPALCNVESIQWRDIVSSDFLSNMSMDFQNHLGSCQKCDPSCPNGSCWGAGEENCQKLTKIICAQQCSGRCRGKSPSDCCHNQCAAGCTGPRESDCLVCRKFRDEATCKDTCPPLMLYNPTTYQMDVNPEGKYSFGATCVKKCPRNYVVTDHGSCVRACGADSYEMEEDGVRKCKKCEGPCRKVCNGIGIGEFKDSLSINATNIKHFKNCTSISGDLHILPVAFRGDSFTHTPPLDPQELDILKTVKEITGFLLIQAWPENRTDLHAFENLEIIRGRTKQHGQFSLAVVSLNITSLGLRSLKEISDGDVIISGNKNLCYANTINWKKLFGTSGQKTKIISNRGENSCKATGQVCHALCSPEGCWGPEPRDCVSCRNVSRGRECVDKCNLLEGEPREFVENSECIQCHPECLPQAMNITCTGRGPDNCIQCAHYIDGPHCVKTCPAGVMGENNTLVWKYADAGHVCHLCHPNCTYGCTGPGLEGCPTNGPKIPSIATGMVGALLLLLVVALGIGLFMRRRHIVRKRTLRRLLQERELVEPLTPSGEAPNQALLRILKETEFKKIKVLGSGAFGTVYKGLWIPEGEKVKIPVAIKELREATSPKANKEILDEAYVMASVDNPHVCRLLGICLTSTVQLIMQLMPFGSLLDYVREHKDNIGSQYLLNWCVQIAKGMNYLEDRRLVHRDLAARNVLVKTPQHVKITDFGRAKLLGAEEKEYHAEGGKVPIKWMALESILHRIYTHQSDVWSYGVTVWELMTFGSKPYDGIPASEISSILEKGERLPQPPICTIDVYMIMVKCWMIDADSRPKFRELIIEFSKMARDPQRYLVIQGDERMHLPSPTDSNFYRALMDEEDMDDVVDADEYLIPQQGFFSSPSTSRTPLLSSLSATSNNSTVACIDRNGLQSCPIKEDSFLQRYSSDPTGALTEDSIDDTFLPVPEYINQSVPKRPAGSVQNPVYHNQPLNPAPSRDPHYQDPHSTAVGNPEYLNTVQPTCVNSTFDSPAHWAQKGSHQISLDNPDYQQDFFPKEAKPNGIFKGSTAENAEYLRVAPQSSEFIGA
T1 sequence (P00533 25-1210): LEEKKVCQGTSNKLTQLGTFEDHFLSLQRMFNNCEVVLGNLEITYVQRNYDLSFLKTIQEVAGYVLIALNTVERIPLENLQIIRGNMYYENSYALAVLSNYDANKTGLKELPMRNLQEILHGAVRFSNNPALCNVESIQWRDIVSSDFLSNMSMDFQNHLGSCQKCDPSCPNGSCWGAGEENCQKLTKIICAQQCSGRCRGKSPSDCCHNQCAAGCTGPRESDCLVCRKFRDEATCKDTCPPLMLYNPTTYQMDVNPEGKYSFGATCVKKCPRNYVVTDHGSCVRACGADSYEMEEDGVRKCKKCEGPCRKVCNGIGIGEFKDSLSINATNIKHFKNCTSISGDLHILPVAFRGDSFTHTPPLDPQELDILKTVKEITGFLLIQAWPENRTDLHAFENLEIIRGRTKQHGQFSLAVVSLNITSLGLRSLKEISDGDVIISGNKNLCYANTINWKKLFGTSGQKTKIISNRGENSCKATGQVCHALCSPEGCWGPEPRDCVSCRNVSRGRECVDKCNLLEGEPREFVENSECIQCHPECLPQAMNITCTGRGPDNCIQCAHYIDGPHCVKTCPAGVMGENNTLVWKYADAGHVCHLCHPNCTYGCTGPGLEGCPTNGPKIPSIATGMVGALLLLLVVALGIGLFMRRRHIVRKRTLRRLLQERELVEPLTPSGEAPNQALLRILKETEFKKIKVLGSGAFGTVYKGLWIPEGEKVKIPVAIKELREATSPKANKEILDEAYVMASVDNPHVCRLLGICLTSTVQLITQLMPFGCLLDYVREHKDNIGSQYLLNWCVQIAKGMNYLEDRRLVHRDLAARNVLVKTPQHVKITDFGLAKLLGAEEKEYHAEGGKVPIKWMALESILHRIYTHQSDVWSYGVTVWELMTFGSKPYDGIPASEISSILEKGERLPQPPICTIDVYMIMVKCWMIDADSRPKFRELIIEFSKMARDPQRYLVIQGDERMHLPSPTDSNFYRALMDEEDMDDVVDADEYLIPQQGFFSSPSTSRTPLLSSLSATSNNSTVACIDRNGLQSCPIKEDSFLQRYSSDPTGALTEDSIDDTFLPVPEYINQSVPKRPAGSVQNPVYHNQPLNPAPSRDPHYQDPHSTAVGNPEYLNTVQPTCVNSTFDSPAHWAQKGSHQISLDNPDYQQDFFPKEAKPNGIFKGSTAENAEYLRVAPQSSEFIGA

SMILES	IC50 ([1]; A-431, 72 h)	GI50 [2]	GI50 [3]	IC50 (wild-type EGFR; read-out: EGFR (WT) IC50)	IC50 [4, 5]	IC50 ([1]; A-431, 72 hours)	IC50 (wild-type EGFR; EGFR (WT) IC50(nM))	IC50 ([4]; EGFR (L858R/T790M/C797S) IC50(nM))
COc1ccc(-n2cccn2)cc1Nc1ncc(Br)c(Nc2ccc3nccnc3c2P(C)(C)=O)n1 [compound 20]	1590 nM	277 nM	629 nM	179 nM	9.21 nM			
COc1c(Nc2ncc(Br)c(Nc3ccc4nccnc4c3P(C)(C)=O)n2)cc(-c2cnn(C)c2)c(N2CCOCC2)c1F [compound 23]	195 nM	8.67 nM	30.3 nM	40.3 nM	1.92 nM			
CCOP(C)(=O)c1c(Nc2nc(Nc3cc(-c4cnn(C)c4)c(N4CCOCC4)c(F)c3OC)ncc2Br)ccc2nccnc12 (centres unmarked) [compound 24]		45.2 nM	139 nM			567 nM	346 nM	11.4 nM
COc1cc(N2CCOCC2)c(-c2cnn(C)c2)cc1Nc1ncc(C(F)(F)F)c(Nc2ccc3nccnc3c2P(C)(C)=O)n1 [compound 25]	159 nM	2.41 nM	8.64 nM	18.7 nM	0.19 nM			
Cn1cc(-c2cc(Nc3ncc(Br)c(Nc4ccc5nccnc5c4P(C)(C)=O)n3)c(OCC(F)(F)F)nc2N2CCOCC2)cn1 [compound 34]	462 nM	2.04 nM	8.94 nM	15.2 nM	0.27 nM			
CCOc1nc(N2CCOCC2)c(-c2cnn(C)c2)cc1Nc1ncc(Br)c(Nc2ccc3nccnc3c2P(C)(C)=O)n1 [compound 36]	320 nM	2.63 nM	17.7 nM	21.9 nM	0.54 nM			
COc1nc(N2CCOCC2)c(-c2cn(C)nc2C)cc1Nc1ncc(Br)c(Nc2ccc3nccnc3c2P(C)(C)=O)n1 [compound 37]	1140 nM	32.6 nM	65.6 nM	268 nM	3.18 nM			
Cc1nc(N2CCOCC2)c(-c2cnn(C)c2)cc1Nc1ncc(Br)c(Nc2ccc3nccnc3c2P(C)(C)=O)n1 [compound 38]	295 nM	10.2 nM	32.6 nM	17.8 nM	0.23 nM			
Cn1cc(-c2cc3c(c(Nc4ncc(Br)c(Nc5ccc6nccnc6c5P(C)(C)=O)n4)c2)OCC3)cn1 [compound 39]	41.3 nM	4.07 nM	9.69 nM	7.45 nM	0.06 nM			
COc1cc(N2CCOCC2)c(-c2cn(C)nc2C)cc1Nc1ncc(Br)c(Nc2ccc3nccnc3c2P(C)(C)=O)n1 [compound 43]	880 nM	16.4 nM	29.7 nM	95.3 nM	0.47 nM			
COc1cc(N2CCOCC2)c(-c2cnn(C)c2)nc1Nc1ncc(C)c(Nc2ccc3nccnc3c2P(C)(C)=O)n1 [compound 71]	> 10000 nM	99.4 nM	316 nM	38.9 nM	1.7 nM			
COc1cc(N2CCOCC2)c(-c2cnn(C)c2)cc1Nc1ncc(Cl)c(Nc2ccc3nccnc3c2P(C)(C)=O)n1 [compound 72]	370 nM	4.54 nM	13.5 nM	4.69 nM	0.2 nM			
COc1cc(N2CCOCC2)c(-c2cnn(C(F)F)c2)cc1Nc1ncc(Br)c(Nc2ccc3nccnc3c2P(C)(C)=O)n1 [compound 78]	550 nM	6.76 nM	14.4 nM	45.5 nM	0.53 nM			
COc1cc(N2CCOCC2)c(-c2cnn(C)c2)cc1Nc1ncc(F)c(Nc2ccc3nccnc3c2P(C)(C)=O)n1 [compound 81]	≥ 10000 nM	19.1 nM	32.4 nM	7.68 nM	0.34 nM			
COc1cc(N2CCOCC2)c(-c2cccs2)cc1Nc1ncc(Br)c(Nc2ccc3nccnc3c2P(C)(C)=O)n1 [compound 83]	2420 nM	34 nM	58.9 nM	1000 nM	3.95 nM			
COc1cc(N2CCOCC2)c(-c2cnn(C)c2)cc1Nc1ncc(Br)c(Nc2ccc3c(c2P(C)(C)=O)CC3)n1 [compound 85]	381 nM	6.15 nM	9.29 nM	9.06 nM	0.11 nM			
COc1cc(N2CCOCC2)c(-c2ccsc2)cc1Nc1ncc(Br)c(Nc2ccc3nccnc3c2P(C)(C)=O)n1 [compound 86]	3060 nM	87.8 nM	136 nM	345 nM	15.6 nM			
CN1CCC2(CC1)CCN(c1nc(OCC(F)(F)F)c(Nc3ncc(Br)c(Nc4ccc5nccnc5c4P(C)(C)=O)n3)cc1-c1cnn(C)c1)CC2 [compound 87]	178 nM	5.89 nM	14.2 nM	3.47 nM	0.35 nM			
COc1c(Nc2ncc(Br)c(Nc3ccc4nccnc4c3P(C)(C)=O)n2)cc(-c2cnn(C)c2)c(N2CCC(N3CCN(C)CC3)CC2)c1F [compound 93]	178 nM	12.5 nM	27 nM	23.1 nM	0.18 nM			
COc1cc(N2CCOCC2)c(-c2cn[nH]c2)cc1Nc1ncc(C)c(Nc2ccc3nccnc3c2P(C)(C)=O)n1 [compound 97]	406 nM	6.64 nM	25.5 nM	1.02 nM	0.15 nM			
COc1cc(N2CCC(N3CCN(C)CC3)CC2)c(-c2cscn2)cc1Nc1ncc(Br)c(Nc2ccc3nccnc3c2P(C)(C)=O)n1 [compound 98]	177 nM	11 nM	27.8 nM	16.2 nM	0.82 nM			
COc1cc(N2CCC3(CCN(C)CC3)CC2)c(-c2cnn(C)c2)cc1Nc1ncc(Br)c(Nc2ccc3nccnc3c2P(C)(C)=O)n1 [compound 101]	46.1 nM	2.87 nM	4.53 nM	0.41 nM	0.18 nM			

Second part, led by results:

IC50 ([1]; A-431, 72 h)	GI50 [2]	GI50 [3]	IC50 (wild-type EGFR; read-out: EGFR (WT) IC50)	IC50 [4, 5]	SMILES	IC50 ([1]; A-431, 72 hours)	IC50 (wild-type EGFR; EGFR (WT) IC50(nM))	IC50 ([4]; EGFR (L858R/T790M/C797S) IC50(nM))
63.9 nM	4.03 nM	18.1 nM	1.57 nM	0.06 nM	COc1cc(N(C)CCN(C)C)c(-c2cnn(C)c2)cc1Nc1ncc(Br)c(Nc2ccc3nccnc3c2P(C)(C)=O)n1 [compound 21]			
152 nM	1.22 nM	4.25 nM	5.75 nM	0.49 nM	COc1cc(N2CCC(OC)CC2)c(-c2cnn(C)c2)cc1Nc1ncc(Br)c(Nc2ccc3nccnc3c2P(C)(C)=O)n1 [compound 26]			
362 nM	4.73 nM	13.7 nM	15.4 nM	0.13 nM	COCCN(C)c1cc(OC)c(Nc2ncc(Br)c(Nc3ccc4nccnc4c3P(C)(C)=O)n2)cc1-c1cnn(C)c1 [compound 28]			
121 nM	1.29 nM	4.25 nM	3.37 nM	0.06 nM	CN(C)c1c(-c2cnn(C)c2)cc(Nc2ncc(Br)c(Nc3ccc4nccnc4c3P(C)(C)=O)n2)c2c1CCO2 [compound 29]			
284 nM	12.1 nM	62.6 nM	55.7 nM	1.01 nM	COc1ncc(-c2cnn(C)c2)cc1Nc1ncc(Br)c(Nc2ccc3nccnc3c2P(C)(C)=O)n1 [compound 30]			
208 nM	0.98 nM	5.45 nM	3.07 nM	0.22 nM	COc1cc(N(C)C)c(-c2cnn(C)c2)cc1Nc1ncc(Br)c(Nc2ccc3nccnc3c2P(C)(C)=O)n1 [compound 32]			
1180 nM	1130 nM	542 nM	55.3 nM	2.85 nM	COc1cc(C(=O)N(C)C)c(-c2cnn(C)c2)cc1Nc1ncc(Br)c(Nc2ccc3nccnc3c2P(C)(C)=O)n1 [compound 40]			
480 nM	14.4 nM	26.4 nM	114 nM	1.24 nM	COc1cc(C23CCOCC2C3)c(-c2cnn(C)c2)cc1Nc1ncc(Br)c(Nc2ccc3nccnc3c2P(C)(C)=O)n1 (centres unmarked) [compound 77]			
392 nM	12.5 nM	20.7 nM	16.6 nM	0.33 nM	COc1cc(F)c(-c2cnn(C)c2)cc1Nc1ncc(Br)c(Nc2ccc3nccnc3c2P(C)(C)=O)n1 [compound 84]			
40.9 nM	2.33 nM	4.16 nM	2.11 nM	0.11 nM	CCN1CCN(c2cc(OC)c(Nc3ncc(Br)c(Nc4ccc5nccnc5c4P(C)(C)=O)n3)cc2-c2cnn(C)c2)CC1 [compound 89]			
31.8 nM	0.54 nM	2.85 nM	2.34 nM	0.03 nM	COCCN1CCN(c2cc(OC)c(Nc3ncc(Br)c(Nc4ccc5nccnc5c4P(C)(C)=O)n3)cc2-c2cnn(C)c2)CC1 [compound 92]			
168 nM	6.99 nM	28.8 nM	2.78 nM	0.15 nM	COc1cc(N2CCS(=O)(=O)CC2)c(-c2cnn(C)c2)cc1Nc1ncc(Br)c(Nc2ccc3nccnc3c2P(C)(C)=O)n1 [compound 94]			
